Data as given in US20260355132A1, “POLYMORPHIC FORMS OF EPINEPHRINE MALONATE” (Biothea Pharma, Inc., priority 2023, published 2026).
Counter-ions that a name gives are not always drawn.

How the values were obtained:
Assay type in all cases: physicochemical
[1] = Kinetic solubility in water (HPLC); settings: 20 °C; for amount nearly dissolved in 0.5 mL of added water: 0.5 mL water; for amount nearly dissolved in 0.5 mL of added water / Approximate Solubility (mg/0.5 mL) / Approximate Solubility / Approximate Solubility (g/mL): 30 min; for Approximate Solubility (mg/0.5 mL) / Approximate Solubility / Approximate Solubility (g/mL) / Content of Salt in VF (mg) 30 min: water, HPLC; for Approximate Solubility / Approximate Solubility (g/mL): kinetic solubility
Method: The kinetic solubility of Form A epinephrine malonate salt and bitartrate salt was determined using the procedure described herein. The solid active pharmaceutical ingredient was allowed to equilibrate from 5 °C to ambient temperature for 1 h. Solids were weighed (0.76 g of malonate and 0.20 g of bitartrate) into 4-mL vials containing a magnetic polytetrafluoroethylene (PTFE) stir bar. Water (0.5 mL) was added and samples were stirred at 20 °C. Additional API was gradually added in small portions over 30 min until trace amount of residual solid was present. At 30 min, the content of the nearly dissolved sample was transferred to a volumetric flask (VF), diluted, subjected to HPLC analyses, and adjusted for initial volume of water used.
The HPLC analysis was conducted using an Agilent 1100 with a Phenomenx Gemini C18, 100×4.6 mm, 3.0 um column. The column temperature was 50 °C, wavelength 210 nm, and flow rate 1.2 mL/min. Mobile Phase A was 5:95 MeCN: Buffer and Mobile Phase B was 45:55 MeCN: Buffer.
The kinetic solubility of Form B was determined using the procedure described herein. The solid Form B was allowed to equilibrate from storage temperature (5 °C) to ambient temperature for 1 hour. Solids were weighed (0.025 g of Form B) into a 4-mL vial containing a magnetic PTFE stir bar. Water (0.5 mL) was added and the sample was stirred at 20 °C. Additional API was gradually added in small portions over 30 min until trace amount of residual solid was present. At 30 minutes, the content of the nearly dissolved sample was transferred to a volumetric flask (VF), diluted, subjected to HPLC analyses, and adjusted for initial volume of water used.

[2] = Relative thermodynamic stability studies in EtOH, EtOH/water and IPA/water; solid-state form stability; settings: for water activity (aw) at which the form is most-stable: room temperature; for relative humidity at which the form is kinetically stable: solid state, Form B once formed, Form C (days)
Method: Relative thermodynamic stability studies in EtOH (crystallization process solvent), EtOH/water and IPA/water were performed. […] The critical water activity for Forms A/B interconversion is between aw=0.4-0.55 (40-55% RH). The transition temperature (Tt) for the enantiotropically related Forms A/C is between RT-40 °C. […] Form C is kinetically stable in solid state (days) at <40% RH.

[3] = Dynamic vapor sorption (DVS); settings: 25 °C, nitrogen carrier gas, 0-95% relative humidity
Method: Form A was subjected to DVS. DVS is a gravimetric technique that measures how quickly and how much of a solvent is absorbed by a sample such as a dry powder absorbing water. The test was conducted using a Surface Measurement Systems DVS Intrinsic Plus at a temperature of 25 °C and using nitrogen as a carrier gas. The relative humidity range spanned from 0-95% and the maximum equilibration time was 240 minutes. The relative humidity steps included 40-50-60-70-75-70-60-50-40-30-20-10-0-10-20-30-40-50-60-70-75-80-90-95-90-80-75-70-60-50-40-30-20-10-0%.
Form A was subjected to the increasing relative humidity until a change in mass occurred. Once a change in mass resulted, the relative humidity was lowered to determine stability of the resulting mass. The relative humidity was then increased again until another change in mass resulted. Once a change in mass resulted, the relative humidity was lowered to determine stability of the resulting mass.

[4] = Water solubility of epinephrine malonate salt (general description); settings: no method given
[5] = pKa of epinephrine malonate salt Form A (general description); settings: no method given
[6] = Stability profile of epinephrine malonate salt (general description); settings: 7, 14, 30, 60, 90, 120, or 150 days
[7] = relative thermodynamic stability
[8] = listed as Epinephrine Malonate Form A

| Compound | Approximate Solubility (mg/0.5 mL) [1] [mg mg/0.5 mL] | Approximate Solubility [1] [mg/mL] | Content of Salt in VF (mg) 30 min [1] [mg] | critical relative humidity for Forms A/B interconversion [2] | critical water activity for Forms A/B interconversion (aw) [2] | water activity (aw) at which the form is most-stable [2, 7] | amount nearly dissolved in 0.5 mL of added water [1] [mg] | relative humidity at which the form is kinetically stable [2] | also measured |
| --- | --- | --- | --- | --- | --- | --- | --- | --- | --- |
| CNC[C@H](O)c1ccc(O)c(O)c1 [Epinephrine Bitartrate, epinephrine bitartrate, reference compound] | ~259 | ~520 | 259.45 |  |  |  |  |  | amount nearly dissolved in 0.5 mL of added water ([1]; listed as bitartrate salt): 259 mg; Approximate Solubility (g/mL) ([1]; listed as bitartrate salt): ~ 0.52 g/mL |
| CNC[C@H](O)c1ccc(O)c(O)c1 [Form A, epinephrine malonate] |  |  |  | 40-55 % RH | 0.4-0.55 | ≤ 0.4 | 912 |  | changes in mass during DVS [3]: Two changes in mass occurred; Approximate Solubility (g/mL) [1]: ~ 1.82 g/mL; Approximate Solubility [1, 8]: ~1820 mg/mL; Approximate Solubility (mg/0.5 mL) [1, 8]: ~911 mg mg/0.5 mL; Content of Salt in VF (mg) 30 min [1, 8]: 911.53 mg; solubility ([4]; water): ≥ 1140 mg/mL; pKa [5]: 5.47 |
| CNC[C@H](O)c1ccc(O)c(O)c1 [Form B, epinephrine malonate] | ~511 | 1000 | 511 | 40-55 % RH | 0.4-0.55 | ≥ 0.55 | 511 | 0-80 % RH | relative humidity for solid-state transition from Form A to Form B ([2]; solid-state): ≥ 40 % RH; formation of Form B in solid state ([2]; solid-state, >55% RH): forms relatively quickly (hours) at >55% RH |
| CNC[C@H](O)c1ccc(O)c(O)c1 [Form C, epinephrine malonate] |  |  |  |  |  |  |  | < 40 % RH | water activity (aw) at which the form is more stable at 40 °C ([2]; 40 °C, relative thermodynamic stability): 0 |
| CNC[C@H](O)c1ccc(O)c(O)c1 [epinephrine malonate salt, epinephrine malonate] |  |  |  |  |  |  |  |  | stability profile [6]: favorable stability profile; water solubility compared with other epinephrine salts (maleate, fumarate, hemi sulfate, bitartrate, hydrochloride) ([4]; crystalline form): substantially higher |
